Test results published in publication PMC6231237 (Journal of the American Chemical Society, 2018).
*1 amine or outer side, *2 acyl side, *3 side chain or, on linkers, in order; H or OH if unused. Where a SMILES comes first, the peptide text is derived from it. Bridges are numbered along the chain shown (N, C = ends). [ ]: non-standard residue; d: D form. Trimesoyl = O=C(c1cc(C(=O)[*:2])cc(C(=O)[*:3])c1)[*:1]; 2Nal = N[C@@H](Cc1ccc2ccccc2c1)C(=O)O; Dap = NC[C@H](N)C(=O)O; βAla = NCCC(=O)O

Columns and labels:
[1] = tested on: A2780 ovarian cancer cells; experiment: Live-cell confocal microscopy of cell entry; type: cell-based; conditions: 5 μM FITC-labeled peptide, 2 h
HT29 colon cancer cells = experiment: Immunoblot analysis of IKKβ and IκBα levels; type: cell-based
NEMO-IKKβ interaction = NEMO-IKKβ interaction (Homo sapiens, UniProt Q9Y6K9); experiment: HTRF assay of inhibition of the NEMO-IKKβ interaction; type: binding; conditions: insertion of Ala N-terminal to the internal Dap, vs peptide 6
HeLa cells = experiment: Flow cytometry analysis of cellular uptake of FITC-labeled peptides; type: cell-based; conditions: relative to CPP1
[2] = biological target: panel of control proteins; experiment: Fluorescence anisotropy; conditions: fluorescently labeled peptide, FA assay
[3] = tested on: TNFα-induced NF-κB activation in HEK293(Luc) cells; experiment: NF-κB luciferase assay, TNFα-induced; type: cell-based
A375 melanoma cells = experiment: Cell viability assay, A375; type: cell-based
[4] = tested on: ovarian surface epithelial cells (OSE); experiment: Methylene blue cell viability assay, OSE; type: cell-based; conditions: 72 h
[5] = tested on: basal NF-κB activity in HEK293(Luc) cells; experiment: NF-κB luciferase assay, basal; type: cell-based; conditions: absence of TNFα stimulation
[6] = 0–25 μM, HT29 cells, TNFα, Western blot

Chain of NEMO-IKKβ interaction (Q9Y6K9 1-196): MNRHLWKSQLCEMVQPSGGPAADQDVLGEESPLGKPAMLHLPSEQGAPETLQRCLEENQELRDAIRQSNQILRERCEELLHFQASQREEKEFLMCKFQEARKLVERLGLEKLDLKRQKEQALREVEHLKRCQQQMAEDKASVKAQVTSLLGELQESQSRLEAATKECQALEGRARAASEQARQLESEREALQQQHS

For `CC[C@H](C)[C@@H]1NC(=O)[C@H](Cc2c[nH]c3ccccc23)NC(=O)CNC(=O)c2cc3cc(c2)C(=O)NC[C@@H](C(=O)NCCC(=O)NCCC(=O)N[C@@H](CCCCN)C(N)=O)NC(=O)[C@H](CCCNC(=N)N)NC(=O)[C@@H](CCCNC(=N)N)NC(=O)[C@H](CCCNC(=N)N)NC(=O)[C@H](Cc2ccc4ccccc4c2)NC(=O)[C@H](Cc2ccccc2)NC(=O)[C@H](CNC3=O)NC(=O)[C@H](C)NC(=O)[C@H](Cc2ccc(O)cc2)NC1=O` [peptide 7, Tm(GWIYA)Δ(FΦRrRΔ)-BBK] (GWIYA[Dap]F[2Nal]R[dR]R[Dap][βAla][βAla]K-NH2; linker N-6-12 via Trimesoyl; C-terminus assumed), the “cell entry (fluorescence)” value [1] was “intense green fluorescence inside all cells”, the “TNFα-induced phosphorylation of IKKβ” value (HT29 colon cancer cells; [6]) was “dose-dependently inhibited” and the “total intracellular IKKβ level” value (HT29 colon cancer cells; [6]) was “unchanged”. For the same compound, the “phospho-IKKβ or IκBα level” value (HT29 colon cancer cells; HT29 cells not stimulated with TNFα) was “no effect”, the “intracellular level of IκBα” value (HT29 colon cancer cells; HT29 cells, TNFα, Western blot) was “increased” and the “increase of binding affinity” value (NEMO-IKKβ interaction) was 5.9 fold. It also gave a cell permeability (HeLa cells) of 163%, a Kd [2] of over 10 µM and an IC50 [3] of 10 µM. The effect on viability (A375 melanoma cells) was “reduced the viability”, the effect on viability [4] was “no significant effect” and the “effect on basal NF-κB activity” value [5] was “did not inhibit”. The “increase in the basal NF-κB activity” value [5] was ~ 1.5 fold.

Compound “RQIKIWFQNRRMKWKKGGTALDWSWLQTE [peptide 1, reference compound]” has an IC50 [3] of about 41 µM.
